From patent US8088936B2, “Leukotriene B4 inhibitors” (Hoffman-La Roche Inc., priority 2009, dated 2012)

Test system: Human leukemia HL-60 cells endogenously expressing BLT1 and BLT2 receptors
Assay: Ca2+ flux assay for LTB4 antagonist assay (HL-60 FLIPR)
Assay type: cell-based
Conditions: retinoic acid induced HL-60 cells, inhibition of LTB4-induced Ca2+ flux, 30 min preincubation; read-out: LTB4 antagonism (HL-60 FLIPR)
Method: Assay of Compounds for Inhibition of LTB4 Activity
Ca^2+Flux Assay for LTB4 Antagonist Assay
Human leukemia HL-60 cells endogenously expressing BLT1 and BLT2 receptors were cultured in RPMI-1640 medium supplemented with 20% fetal bovine serum, 2 mM glutamine, 100 U/ml penicillin and 100 ug/ml streptomycin.
Seventy two hours prior to experiment cells are counted using ViaCount reagent, centrifuged and resuspended at 2.0×10^5 cells/ml density with the complete growth media containing 1 μM Retinoic Acid (Sigma).
On a day of the experiment loading buffer (Calcium-3 Assay Kit, Molecular Devices) was prepared by dissolving the contents of one vial (Express Kit) into 500 ml Hank's Balanced Salt Solution containing 20 mM HEPES and 5 mM probenecid. Equal volume of the loading buffer was mixed with the replacement buffer (Hank's Balanced Salt Solution containing 20 mM HEPES, 0.05% BSA and 5 mM probenecid). Retinoic Acid induced HL-60 cells were counted using ViaCount reagent, centrifuged and resuspended at 2.0×10^6 cells/ml density with the loading buffer/replacement buffer, dispensed into 384 well black/clear microplates (Falcon) (25 μl/well) and placed in a 37° C./5% CO2 incubator for 1 hour.
During the incubation, test compounds were prepared at 6× the desired concentration in HBSS/20 mM HEPES/0.05% BSA as well as LTB4 (Biomol) was prepared at 2.2× concentration in HBSS/20 mM HEPES/0.5% BSA buffer.
After the incubation, both the cell and compound plates were brought to the FLIPR and 5 μl of the diluted compounds were transferred to the cell plates by the FLIPR. Plates were then incubated for 30 min at room temperature. After the ½ hour incubation, plates were returned to the FLIPR and 25 μl of 2.2×LTB4 was added to the cell plates. During the assay, fluorescence readings were taken simultaneously from all 384 wells of the cell plate every 1.5 seconds. Five readings were taken to establish a stable baseline, then 25 μl (LTB4) of sample was rapidly and simultaneously added to each well of the cell plate. The fluorescence was continuously monitored before, during and after sample addition for a total elapsed time of 100 seconds. Responses (increase in peak fluorescence) in each well following agonist addition was determined. The initial fluorescence reading from each well, prior to ligand stimulation, was used a zero baseline value for the data from that well. The responses are expressed as % inhibition of the neutral control (neural control: wells that received buffer plus DMSO but no test compound).

Row | Structure (SMILES) | IC50
1 | COCc1cc(OCCCCCCc2cccc(OCCCC(=O)O)c2CCC(=O)O)cc(-c2ccc3[nH]ccc3c2)c1 [Example 23, 4-[2-(2-Carboxy-ethyl)-3-{6-[3-(1H-indol-5-yl)-5-methoxymethyl-phenoxy]-hexyl}-phenoxy]-butyric acid] | 30.2 nM
2 | COCc1cc(OCCCCCCc2cccc(OCCCC(=O)O)c2CCC(=O)O)cc(-c2cccc(Cl)c2)c1 [Example 18, 4-{2-(2-Carboxy-ethyl)-3-[6-(3′-chloro-5-methoxymethyl-biphenyl-3-yloxy)-hexyl]-phenoxy}-butyric acid] | 13.4 nM
3 | CCOCc1cc(OCCCCCCc2cccc(OCCCC(=O)O)c2CCC(=O)O)cc(-c2ccc(S(C)(=O)=O)cc2)c1 [Example 29, 4-[2-(2-Carboxy-ethyl)-3-[6-(5-ethoxymethyl-4′-methanesulfonyl-biphenyl-3-yloxy)-hexyl]-phenoxy]-butyric acid] | 16 nM
4 | COCc1cc(OCCCCCCc2cccc(OCCCC(=O)O)c2CCC(=O)O)cc(-c2ccccc2F)c1 [Example 15, 4-{2-(2-Carboxy-ethyl)-3-[6-(2′-fluoro-5-methoxymethyl-biphenyl-3-yloxy)-hexyl]-phenoxy}-butyric acid] | 5.98 nM
5 | COCc1cc(OCCCCCCc2cccc(OCCCC(=O)O)c2CCC(=O)O)cc(-c2ccc(Cl)cc2)c1 [Example 11, 4-{2-(2-Carboxy-ethyl)-3-[6-(4′-chloro-5-methoxymethyl-biphenyl-3-yloxy)-hexyl]-phenoxy}-butyric acid] | 1.37 nM
6 | COCc1cc(OCCCCCCc2cccc(OCCCC(=O)O)c2CCC(=O)O)cc(-c2ccc3c(c2)OCCO3)c1 [Example 12, 4-(2-(2-Carboxy-ethyl)-3-{6-[3-(2,3-dihydro-benzo[1,4]dioxin-6-yl)-5-methoxymethyl-phenoxy]-hexyl}-phenoxy)-butyric acid] | 1.38 nM
7 | CS(=O)(=O)c1ccc(-c2cc(CO)cc(OCCCCCCc3cccc(OCCCC(=O)O)c3CCC(=O)O)c2)cc1 [Example 7, 4-[2-(2-Carboxy-ethyl)-3-[6-(5-hydroxymethyl-4′-methanesulfonyl-biphenyl-3-yloxy)-hexyl]-phenoxy]-butyric acid] | 83.2 nM
8 | COCc1cc(OCCCCCCc2cccc(OCCCC(=O)O)c2CCC(=O)O)cc(-c2ccc3c(c2)OCO3)c1 [Example 8, 4-[3-[6-(3-Benzo[1,3]dioxol-5-yl-5-methoxymethyl-phenoxy)-hexyl]-2-(2-carboxy-ethyl)-phenoxy]-butyric acid] | 0.14 nM

Other lines, results leading:

Row | IC50 | Structure (SMILES)
9 | 0.77 nM | O=C(O)CCCOc1cccc(CCCCCCOc2cc(C(=O)C3CCCC3)cc(-c3ccc4c(c3)OCO4)c2)c1CCC(=O)O [Example 73, 4-[3-[6-(3-Benzo[1,3]dioxol-5-yl-5-cyclopentanecarbonyl-phenoxy)-hexyl]-2-(2-carboxy-ethyl)-phenoxy]-butyric acid]
10 | 5.1 nM | CC(=O)c1cc(OCCCCCCc2cccc(OCCCC(=O)O)c2CCC(=O)O)cc(-c2cccc(F)c2)c1 [Example 67, 4-[3-[6-(5-Acetyl-3′-fluoro-biphenyl-3-yloxy)-hexyl]-2-(2-carboxy-ethyl)-phenoxy]-butyric acid]
11 | 6.69 nM | CCOc1cc(OCCCCCCc2cccc(OCCCC(=O)O)c2CCC(=O)O)cc(-c2ccc3cc[nH]c3c2)c1 [Example 55, 4-[2-(2-Carboxy-ethyl)-3-{6-[3-ethoxy-5-(1H-indol-6-yl)-phenoxy]-hexyl}-phenoxy]-butyric acid]
12 | 5.2 nM | CCOc1cc(OCCCCCCc2cccc(OCCCC(=O)O)c2CCC(=O)O)cc(-c2ccc(F)cc2)c1 [Example 48]
13 | 2.95 nM | CC(=O)c1cc(OCCCCCCc2cccc(OCCCC(=O)O)c2CCC(=O)O)cc(-c2ccc3c(c2)OCO3)c1 [Example 64, 4-[3-[6-(3-Acetyl-5-benzo[1,3]dioxol-5-yl-phenoxy)-hexyl]-2-(2-carboxy-ethyl)-phenoxy]-butyric acid]
14 | 0.11 nM | CN(C)Cc1cc(OCCCCCCc2cccc(OCCCC(=O)O)c2CCC(=O)O)cc(-c2ccc(F)cc2)c1 [Example 33, 4-{2-(2-Carboxy-ethyl)-3-[6-(5-dimethylaminomethyl-4′-fluoro-biphenyl-3-yloxy)-hexyl]-phenoxy}-butyric acid]
15 | 6.94 nM | CCOc1cc(OCCCCCCc2cccc(OCCCC(=O)O)c2CCC(=O)O)cc(-c2ccnc(Cl)c2)c1 [Example 52, 4-[2-(2-Carboxy-ethyl)-3-[6-[3-(2-chloro-pyridin-4-yl)-5-ethoxy-phenoxy]-hexyl]-phenoxy]-butyric acid]
16 | 0.11 nM | CN(C)Cc1cc(OCCCCCCc2cccc(OCCCC(=O)O)c2CCC(=O)O)cc(-c2ccsc2)c1 [Example 31, 4-{2-(2-Carboxy-ethyl)-3-[6-(3-dimethylaminomethyl-5-thiophen-3-yl-phenoxy)-hexyl]-phenoxy}-butyric acid]
